Measured values taken from PMC8878317, “Chemogenomics identifies acetyl-coenzyme A synthetase as a target for malaria treatment and prevention” (Cell Chemical Biology, 2022).

System: P. falciparum 3D7 parasites
Experiment: Metabolomic profiling of compound-treated parasites (LC/MS);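 on Metabolite data: 3-Phosphoglycerate: Log2 fold change in abundance versus untreated parasite controls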;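 on Metabolite data: Myo-Inositol: Log2 fold change in abundance versus untreated parasite controls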;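 on Metabolite data: N-Carbamoyl-L-Aspartate: Log2 fold change in abundance versus untreated parasite controls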;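 on Metabolite data: Nicotinate: Log2 fold change in abundance versus untreated parasite controls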
Assay type: cell-based
Set-up: Metabolite data: dTMP / Metabolite data: GMP / Metabolite data: S-Adenosyl-L-Homocysteine / Metabolite data: 1_3-Bisphosphoglyceric acid: scale not given here
Method in brief: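 Magnetically purified trophozoites (1×10^8 parasites/mL) recovered 1 h in RPMI 1640, incubated a further 2.5 h, quenched in 90% methanol with labeled aspartate. Extracts analysed by reverse-phase C18 LC with negative-mode Orbitrap MS; peak areas normalized to internal standards, blank-subtracted and averaged by condition.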

Cc1cc(Nc2ccc3ccccc3c2)n2ncnc2n1 [DSM1]
Metabolite data: 1_3-Bisphosphoglyceric acid: 0 | Metabolite data: 2_3-Diphosphoglyceric acid: -0.2991 | Metabolite data: 3-Phosphoglycerate: -0.4141 | Metabolite data: 4-Aminobutyrate: 0.009246 | Metabolite data: 4-Phosphopantothenate: -0.5403 | Metabolite data: 4-phosphopantetheine: 0 | Metabolite data: 5-aminopentanoic acid: 0 | Metabolite data: 5-phosphoribosyl-1-pyrophosphate: 0 | Metabolite data: 6-Phospho-D-Gluconate: -0.253 | Metabolite data: ADP-D-Glucose: -0.1243 | Metabolite data: Acetyl-CoA: -0.3243 | Metabolite data: Acetyllysine: -0.16 | Metabolite data: Aconitate: -0.837 | Metabolite data: CDP: -0.7937 | Metabolite data: CDP-Ethanolamine: -0.6098 | Metabolite data: CDP-choline: 0 | Metabolite data: CMP: -1.862 | Metabolite data: CTP: -3.137 | Metabolite data: Citrate/Isocitrate: -0.6885 | Metabolite data: Cyclic-AMP: -0.9051 | Metabolite data: Dihydroorotate: 2.672 | Metabolite data: FAD: -0.1625 | Metabolite data: FMN: -0.9996 | Metabolite data: Fructose-1,6-Bisphosphate: -0.4129 | Metabolite data: Fumarate: -1.402 | Metabolite data: GDP: 0.4797 | Metabolite data: GMP: 0.1634 | Metabolite data: GTP: -1.061 | Metabolite data: Glucose-1/6-Phosphate: -0.4979 | Metabolite data: Glutathione Disulfide: -0.412 | Metabolite data: Hexose: 0 | Metabolite data: Hydroxyisocaproic acid: 0 | Metabolite data: Indole: -0.8571 | Metabolite data: Ketoleucine: 0 | Metabolite data: L-arginino-succinate: 0 | Metabolite data: Lactate: -0.809 | Metabolite data: Malate: -1.549 | Metabolite data: Myo-Inositol: -1.331 | Metabolite data: N-Acetyl-Glutamate: -0.2257 | Metabolite data: N-Acetyl-L-Alanine: -0.1646 | Metabolite data: N-Acetyl-L-Ornithine: -0.5891 | Metabolite data: N-Carbamoyl-L-Aspartate: 2.4139 | Metabolite data: NAD+: -0.1986 | Metabolite data: NADH: 0.07835 | Metabolite data: NADP+: -0.1908 | Metabolite data: NADPH: -0.3915 | Metabolite data: Nicotinate: -0.7359 | Metabolite data: Octulose 8/1-Phosphate: -0.4585 | Metabolite data: Orotate: -2.835 | Metabolite data: PD: -0.209 | Metabolite data: PE: -0.4415 | Metabolite data: PEEK: -0.4847 | Metabolite data: Phenol Red: 0 | Metabolite data: Pyroglutamic acid: -0.2671 | Metabolite data: S-Adenosyl-L-Homocysteine: -0.1944 | Metabolite data: S-methyl-5'-thioadenosine: -0.4315 | Metabolite data: SD: -0.8655 | Metabolite data: Sedoheptulose Bisphosphate: -0.2224 | Metabolite data: UDP: -2.0359 | Metabolite data: UDP-D-Glucose: -0.2988 | Metabolite data: UDP-D-Glucuronate: -0.2168 | Metabolite data: UDP-N-Acetyl-Glucosamine: -0.4693 | Metabolite data: UMP: -2.06 | Metabolite data: UTP: -4.388 | Metabolite data: a-ketoglutarate: -0.7348 | Metabolite data: acetyl-aspartate: 0 | Metabolite data: arginine: 0 | Metabolite data: asparagine: 0 | Metabolite data: aspartate: 0 | Metabolite data: biotin: 0 | Metabolite data: chlorpropamide: 0 | Metabolite data: coenzyme A: 0 | Metabolite data: dAMP: 1.7179 | Metabolite data: dATP: -0.3141 | Metabolite data: dCDP: -0.1509 | Metabolite data: dCMP: -1.099 | Metabolite data: dCTP: -2.549 | Metabolite data: dGDP/ADP: 0.1331 | Metabolite data: dGMP/AMP: 0.02924 | Metabolite data: dGTP/ATP: 0 | Metabolite data: dTDP: -1.607 | Metabolite data: dTMP: -2.786 | Metabolite data: dTTP: -3.44 | Metabolite data: folate: 0 | Metabolite data: glucono-lactone: 0 | Metabolite data: glutamate: 0 | Metabolite data: glutamine: 0 | Metabolite data: glutathione: 0 | Metabolite data: histidine: 0 | Metabolite data: hydroxyproline/Aminolevulinate: 0 | Metabolite data: isoleucine: 0 | Metabolite data: leucine: 0 | Metabolite data: maleic acid: 0 | Metabolite data: methionine: 0 | Metabolite data: nicotinamide mononucleotide: 0 | Metabolite data: orotidine-5'-phosphate: 0
